Experimental data taken from patent publication US7989422B2, “Antibacterial agents” (Alchemia Limited, priority 2005, dated 2011).

Experiments:
Assay type in all cases: cell-based
[1] = test system: Enterococcus faecalis ATCC 29212; experiment: MIC against E. faecalis, microbroth dilution; details: MIC class
Method: (§1) Testing was conducted to determine the in vitro antimicrobial activity of a series of compounds synthesised by Alchemia Pty Ltd. The antimicrobial activity of each compound was determined at a single concentration (128 μg/mL) in Mueller Hinton (MH) broth against the ATCC type strain of Staphylococcus aureus. […] Compounds showing activity at concentrations up to 32-64 μg/mL in the presence/absence of serum were then tested for MIC activity against a standard set of 5 microorganisms comprising of ATCC type strains of MRSA, Enterococcus faecalis, Enterococcus faecium, VRE and Escherichia coli. CLSI (formerly NCCLS) microbroth dilution technique was used.
(§2) Each compound is initially dissolved in 100 μL of DMSO. Each solution is then diluted further in 0.9 mL of sterile MH broth to give a total volume of 1 mL (1000 μg/mL) This stock solution is then further diluted in MH broth to give a test solution with final concentration of 128 μg/mL using the following formula: 0.5 ml stock in 3.4 ml MH broth
(§3) Each test organism was subcultured from the −70° C. deep freezer onto horse blood agar. The plates were streaked to obtain isolated colonies and incubated at 35° C. in non-CO2 incubator for 24 hours. A second subculture was carried out onto horse blood agar. For each test organism, 1-2 colonies were selected from an 18-24 hour culture and inoculated into 2 ml sterile MH broth. The turbidity was adjusted to 0.5 McFarland standard.
(§4) A 1:10 dilution in MH broth (200 μL in 2 ml MH) of the 0.5 McFarland control was prepared. 5 μL of this diluted solution was used to inoculate the trays.
(§5) The trays were prepared in a similar way as mentioned above and incubated at 35° C. in a non-CO2 incubator for 18-24 hours. The plates were examined for growth after the incubation time.
(§6) After 18-24 hour incubation 5 μL from each well was then inoculated onto horse blood agar and incubated for 18-24 hours at 35° C. in a non-CO2 incubator.
(§7) If the test organism is sensitive to the compound in the broth the growth will be inhibited. Similarly, if the organism grows on the antibiotic containing medium then it is resistant to this particular antibiotic.

[2] = test system: Staphylococcus aureus (MRSA) ATCC 33591; experiment: MIC against MRSA, microbroth dilution; details: MIC class
Method: as §1, §2, §3, §4, §5, §6, §7

[3] = test system: Staphylococcus aureus ATCC 25923; experiment: MIC against S. aureus, microbroth dilution in MH broth, without or with 5% horse serum; details: MIC class; S. aureus ATCC 25923
Method: as §1, §2, §3, §4
100 μL of sterile MH broth was added in columns 2-12. 200 μL of test solution was added in column 1. 100 μL was transferred in column 2 giving a ½ dilution. 100 μL from column 2 was then transferred to column 3 (¼ dilution). This dilution was carried on until column 12. A second tray containing the same test solution was inoculated in a similar manner using sterile MH broth with 5% heat inactivated horse serum. 5 μL of organism solution was then added to each well. The plates were then sealed and incubated at 35° C. in a non-CO2 incubator for 18-24 hours. The plates were examined for growth after the incubation time.
as §7

[4] = test system: Enterococcus faecium ATCC 35667; experiment: MIC against E. faecium, microbroth dilution; details: MIC class
Method: as §1, §2, §3, §4, §5, §6, §7

[5] = test system: E. Faecium 51299 VanB; experiment: MIC against vancomycin-resistant enterococcus 51299 (VanB), microbroth dilution; details: MIC class; ATCC 51299 VanB
Method: as §1, §2, §3, §4, §5, §6, §7

| SMILES | E. Fecalis 29212 activity [1] | S. Aureus 33591 MRSA activity [2] | S. Aureus 25923 activity [3] | E. Faecium 35667 activity [4] | E. Faecium 51299 VanB activity [5] |
| --- | --- | --- | --- | --- | --- |
| CCCCCC(C)CCC(=O)NC1C(CO)OCC(n2c(O)nc3cc(C(F)(F)F)cc(Cl)c32)C1O (stereo not drawn) [Compound 177] | − (“−”: MIC (μg/mL): MIC > 64) | + (“+”: MIC (μg/mL): 64 ≧ MIC > 16) | + (“+”: MIC (μg/mL): 64 ≧ MIC > 16) | + (“+”: MIC (μg/mL): 64 ≧ MIC > 16) | − (“−”: MIC (μg/mL): MIC > 64) |
| O=C(Nc1ccc(Cl)c(C(F)(F)F)c1)NC1COC(CO)C(n2c(NCc3ccc4ccccc4c3)nc3cc(C(F)(F)F)ccc32)C1O (stereo not drawn) [Compound 251] | ++ (“++”: MIC (μg/mL): MIC ≦ 16) | ++ (“++”: MIC (μg/mL): MIC ≦ 16) | ++ (“++”: MIC (μg/mL): MIC ≦ 16) | ++ (“++”: MIC (μg/mL): MIC ≦ 16) | ++ (“++”: MIC (μg/mL): MIC ≦ 16) |
| NC(CC(=O)Nc1nc2cc(C(F)(F)F)ccc2n1C1C(CO)OCC(NC(=O)Nc2ccc(Cl)c(C(F)(F)F)c2)C1O)c1ccc(-c2ccccc2)cc1 (stereo not drawn) [Compound 238] | ++ (“++”: MIC (μg/mL): MIC ≦ 16) | ++ (“++”: MIC (μg/mL): MIC ≦ 16) | − (“−”: MIC (μg/mL): MIC > 64) | − (“−”: MIC (μg/mL): MIC > 64) | − (“−”: MIC (μg/mL): MIC > 64) |
| O=C(Nc1ccc(Cl)c(C(F)(F)F)c1)NC1COC(CO)C(n2c(NCc3ccccc3)nc3cc(C(F)(F)F)cc(Cl)c32)C1O (stereo not drawn) [Compound 255] | ++ (“++”: MIC (μg/mL): MIC ≦ 16) | ++ (“++”: MIC (μg/mL): MIC ≦ 16) | ++ (“++”: MIC (μg/mL): MIC ≦ 16) | − (“−”: MIC (μg/mL): MIC > 64) | + (“+”: MIC (μg/mL): 64 ≧ MIC > 16) |
| Nc1ccccc1OC1C(NC(=O)Nc2ccc(Cl)c(C(F)(F)F)c2)COC(CO)C1NC(=O)c1ccc(-c2ccccc2)cc1 (stereo not drawn) [Compound 69] | − (“−”: MIC (μg/mL): MIC > 64) | − (“−”: MIC (μg/mL): MIC > 64) | + (“+”: MIC (μg/mL): 64 ≧ MIC > 16) | − (“−”: MIC (μg/mL): MIC > 64) | − (“−”: MIC (μg/mL): MIC > 64) |
| O=C(Nc1ccc(Cl)c(C(F)(F)F)c1)NC1COC(CO)C(n2c(Nc3ccc(-c4ccccc4)cc3)nc3cc(C(F)(F)F)cc(Cl)c32)C1O (stereo not drawn) [Compound 254] | − (“−”: MIC (μg/mL): MIC > 64) | ++ (“++”: MIC (μg/mL): MIC ≦ 16) | ++ (“++”: MIC (μg/mL): MIC ≦ 16) | − (“−”: MIC (μg/mL): MIC > 64) | − (“−”: MIC (μg/mL): MIC > 64) |
| Nc1nc2cc(C(F)(F)F)cc(Cl)c2n1C1COC(CO)C(NC(=O)c2ccc(-c3ccccc3)cc2)C1O (stereo not drawn) [Compound 155] | − (“−”: MIC (μg/mL): MIC > 64) | + (“+”: MIC (μg/mL): 64 ≧ MIC > 16) | + (“+”: MIC (μg/mL): 64 ≧ MIC > 16) | − (“−”: MIC (μg/mL): MIC > 64) | − (“−”: MIC (μg/mL): MIC > 64) |
| CCCCCCCCCCCCC(N)C(=O)NC1C(CO)OCC(Nc2c(Cl)cc(C(F)(F)F)cc2[N+](=O)[O-])C1O (stereo not drawn) [Compound 198] | + (“+”: MIC (μg/mL): 64 ≧ MIC > 16) | + (“+”: MIC (μg/mL): 64 ≧ MIC > 16) | + (“+”: MIC (μg/mL): 64 ≧ MIC > 16) | + (“+”: MIC (μg/mL): 64 ≧ MIC > 16) | + (“+”: MIC (μg/mL): 64 ≧ MIC > 16) |
| CCCCCCCCCCCCC(N)C(=O)NC1C(CO)OCC(Nc2ccc(C(F)(F)F)cc2[N+](=O)[O-])C1O (stereo not drawn) [Compound 197] | + (“+”: MIC (μg/mL): 64 ≧ MIC > 16) | + (“+”: MIC (μg/mL): 64 ≧ MIC > 16) | ++ (“++”: MIC (μg/mL): MIC ≦ 16) | + (“+”: MIC (μg/mL): 64 ≧ MIC > 16) | + (“+”: MIC (μg/mL): 64 ≧ MIC > 16) |
| O=C(NC1C(CO)OCC(n2c(O)nc3cc(C(F)(F)F)cc(Cl)c32)C1O)c1ccc(-c2ccccc2)cc1 (stereo not drawn) [Compound 153] | + (“+”: MIC (μg/mL): 64 ≧ MIC > 16) | + (“+”: MIC (μg/mL): 64 ≧ MIC > 16) | + (“+”: MIC (μg/mL): 64 ≧ MIC > 16) | − (“−”: MIC (μg/mL): MIC > 64) | − (“−”: MIC (μg/mL): MIC > 64) |
| O=C(Nc1ccc(Cl)c(C(F)(F)F)c1)NC1COC(CO)C(n2c(Nc3ccc(C(F)(F)F)cc3)nc3cc(C(F)(F)F)cc(Cl)c32)C1O (stereo not drawn) [Compound 253] | + (“+”: MIC (μg/mL): 64 ≧ MIC > 16) | − (“−”: MIC (μg/mL): MIC > 64) | − (“−”: MIC (μg/mL): MIC > 64) | − (“−”: MIC (μg/mL): MIC > 64) | − (“−”: MIC (μg/mL): MIC > 64) |
| O=C(Nc1ccc(Cl)c(C(F)(F)F)c1)NC1COC(CO)C(n2c(NCc3ccc(Cl)cc3)nc3cc(C(F)(F)F)cc(Cl)c32)C1O (stereo not drawn) [Compound 256] | ++ (“++”: MIC (μg/mL): MIC ≦ 16) | − (“−”: MIC (μg/mL): MIC > 64) | − (“−”: MIC (μg/mL): MIC > 64) | − (“−”: MIC (μg/mL): MIC > 64) | ++ (“++”: MIC (μg/mL): MIC ≦ 16) |
| Nc1cc(C(F)(F)F)cc(Cl)c1NC1COC(CO)C(NC(=O)c2ccc(-c3ccccc3)cc2)C1O (stereo not drawn) [Compound 200] | − (“−”: MIC (μg/mL): MIC > 64) | + (“+”: MIC (μg/mL): 64 ≧ MIC > 16) | − (“−”: MIC (μg/mL): MIC > 64) | − (“−”: MIC (μg/mL): MIC > 64) | − (“−”: MIC (μg/mL): MIC > 64) |
| CCCCCCCCCCCCC(N)C(=O)NC1C(CO)OCC(n2c(S)nc3cc(C(F)(F)F)cc(Cl)c32)C1O (stereo not drawn) [Compound 186] | + (“+”: MIC (μg/mL): 64 ≧ MIC > 16) | + (“+”: MIC (μg/mL): 64 ≧ MIC > 16) | ++ (“++”: MIC (μg/mL): MIC ≦ 16) | − (“−”: MIC (μg/mL): MIC > 64) | − (“−”: MIC (μg/mL): MIC > 64) |
| NC(C(=O)Nc1nc2cc(C(F)(F)F)ccc2n1C1C(CO)OCC(NC(=O)Nc2ccc(Cl)c(C(F)(F)F)c2)C1O)c1ccc(-c2ccccc2)cc1 (stereo not drawn) [Compound 236] | ++ (“++”: MIC (μg/mL): MIC ≦ 16) | ++ (“++”: MIC (μg/mL): MIC ≦ 16) | − (“−”: MIC (μg/mL): MIC > 64) | ++ (“++”: MIC (μg/mL): MIC ≦ 16) | + (“+”: MIC (μg/mL): 64 ≧ MIC > 16) |
| O=C(Nc1ccc(Cl)c(C(F)(F)F)c1)NC1COC(CO)C(n2c(NCc3ccccc3)nc3cc(C(F)(F)F)ccc32)C1O (stereo not drawn) [Compound 246] | ++ (“++”: MIC (μg/mL): MIC ≦ 16) | ++ (“++”: MIC (μg/mL): MIC ≦ 16) | ++ (“++”: MIC (μg/mL): MIC ≦ 16) | + (“+”: MIC (μg/mL): 64 ≧ MIC > 16) | + (“+”: MIC (μg/mL): 64 ≧ MIC > 16) |
| Nc1ccccc1OC1C(NC(=O)Nc2ccc(Cl)c(C(F)(F)F)c2)COC(CO)C1NC(=O)C(N)Cc1ccc(-c2ccccc2)cc1 (single isomer, unassigned) [Compound 71] | + (“+”: MIC (μg/mL): 64 ≧ MIC > 16) | ++ (“++”: MIC (μg/mL): MIC ≦ 16) | ++ (“++”: MIC (μg/mL): MIC ≦ 16) | ++ (“++”: MIC (μg/mL): MIC ≦ 16) | + (“+”: MIC (μg/mL): 64 ≧ MIC > 16) |
| O=C(NC1C(CO)OCC(n2cnc3cc(C(F)(F)F)cc(Cl)c32)C1O)c1ccc(-c2ccccc2)cc1 (stereo not drawn) [Compound 156] | − (“−”: MIC (μg/mL): MIC > 64) | − (“−”: MIC (μg/mL): MIC > 64) | + (“+”: MIC (μg/mL): 64 ≧ MIC > 16) | + (“+”: MIC (μg/mL): 64 ≧ MIC > 16) | − (“−”: MIC (μg/mL): MIC > 64) |
